Measurements from patent publication US8603986B2, “Compounds and methods for modulating cadherin-mediated processes” (McGill University, priority 2005, dated 2013).
Marks after values point to notes of the source that are not given here.

How the values were obtained:
[1] = molecular target: T1, VE-cadherin/Fc chimeric protein (Homo sapiens, UniProt P33151); experiment: Cadherin specificity: phage ELISA on VE-cadherin/Fc; assay type: binding; set-up: key: +: Phage bound to the chimeric protein; −: No phage bound to the chimeric protein
T1 construct: purchased R&D Systems, Minneapolis, Minn
Experimental: (§1) The binding of each clone to the cadherin/Fc chimeric proteins was confirmed by ELISA. Wells of ProBind microtiter plates (Falcon) were coated with either N-cadherin/Fc or E-cadherin/Fc chimeric protein (100 ng/well) or human IgG1 (which contains the Fc fragment) (100 ng/well). After blocking the nonspecific sites with TBS containing 3% BSA and 1.2 mM CaCl2 for 1 h at 37° C., phage clones (10^9 pfu) diluted in TBST containing 3% BSA and 1.2 mM CaCl2 (100 μl/well). Non-coated wells were also used to exclude any phage that bound to the plastic surface. After 1 h incubation at room temperature, wells were washed 3 times with TBST containing 3% BSA and 1.2 mM CaCl2. M13 phage without any insert were used to control the non-specific binding of the phage itself to the target. Monoclonal anti-M13 antibody conjugated to horseradish peroxidase (Amersham Biosciences, Piscataway, N.J.) was diluted in TBST containing 3% BSA and 1.2 mM CaCl2 (1:2,000) and added to each well (100 μl/well). After 1 h incubation at room temperature, wells were washed three times with TBST containing 3% BSA and 1.2 mM CaCl2 and once with TBS containing 1.2 mM CaCl2. Horseradish peroxidase substrate, TMB (Sigma), was added to each well (100 μl/well and after color development the reaction was stopped by addition of 100 μl 0.5 M sulphuric acid to each well. The intensity of the color was measured at 450 nm.
(§2) The phage clones shown to bind to the N-cadherin/Fc chimeric protein by ELISA were also evaluated for their ability to bind to E-cadherin/Fc and VE-cadherin/Fc chimeric proteins. The phage clones shown to bind to the E-cadherin/Fc chimeric protein by ELISA were also evaluated for their ability to bind to N-cadherin/Fc and VE-cadherin/Fc chimeric proteins. The same ELISA protocol described in the previous section was used to perform this evaluation with the exception that the wells were coated with either 100 ng N-cadherin/Fc, E-cadherin/Fc or VE-cadherin/Fc chimeric protein (R&D Systems, Minneapolis, Minn.).

[2] = molecular target: T2, N-cadherin/Fc chimeric protein (Homo sapiens, UniProt P19022); experiment: Cadherin/Fc binding assay: phage ELISA on N-cadherin/Fc; set-up: key to ELISA Phage Binding to N-Cadherin/Fc Chimeric Protein 1.2 mM calcium / ELISA Phage Binding to N-Cadherin/Fc Chimeric Protein 2 mM EDTA / ELISA Phage Binding to Cadherin/Fc Chimeric Proteins N−: +: Phage bound to the chimeric protein; −: No phage bound to the chimeric protein
T2 construct: extracellular domain of human N-cadherin (Asp160-Ala724); purchased R&D Systems, Minneapolis, Minn
T2 sequence (P19022 160-724): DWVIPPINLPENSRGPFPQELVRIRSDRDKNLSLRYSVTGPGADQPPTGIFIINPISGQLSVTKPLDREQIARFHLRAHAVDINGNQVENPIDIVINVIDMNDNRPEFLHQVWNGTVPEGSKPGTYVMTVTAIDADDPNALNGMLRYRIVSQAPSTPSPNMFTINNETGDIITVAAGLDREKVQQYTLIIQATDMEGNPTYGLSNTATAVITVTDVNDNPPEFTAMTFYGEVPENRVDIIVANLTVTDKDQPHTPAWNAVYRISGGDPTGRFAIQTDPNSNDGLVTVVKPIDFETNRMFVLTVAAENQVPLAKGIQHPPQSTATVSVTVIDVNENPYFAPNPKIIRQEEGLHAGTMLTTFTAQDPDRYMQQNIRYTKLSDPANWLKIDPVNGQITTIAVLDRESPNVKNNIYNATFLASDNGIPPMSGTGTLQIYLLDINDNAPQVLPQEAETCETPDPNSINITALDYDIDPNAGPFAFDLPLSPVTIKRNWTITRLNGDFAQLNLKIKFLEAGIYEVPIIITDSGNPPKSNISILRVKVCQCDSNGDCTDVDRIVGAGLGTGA
Text: (§3) The peptide libraries, Ph.D.-C7C™ and Ph.D.-12™ (New England BioLabs) were used in this study. These libraries are composed of 2×10^9 randomized 7 amino acid sequences flanked by cysteine residues and linear 12 amino acid sequences, respectively. The amino acid sequences are incorporated into the minor coat protein, pIII, of M13 phage. The N-cadherin/Fc chimeric protein (R&D Systems, Minneapolis, Minn.) consists of the extracellular domain of human N-cadherin (Asp160-Ala724) and the Fc region of human IgG1. The E-cadherin/Fc chimeric protein (R&D Systems, Minneapolis, Minn.) consists of the extracellular domain of human E-cadherin (Asp155-Ile707) and the Fc region of human IgG1.
The binding of each clone to the cadherin/Fc chimeric proteins was confirmed by ELISA. Wells of ProBind microtiter plates (Falcon) were coated with either N-cadherin/Fc or E-cadherin/Fc chimeric protein (100 ng/well) or human IgG1 (which contains the Fc fragment) (100 ng/well). […] Non-coated wells were also used to exclude any phage that bound to the plastic surface. […] M13 phage without any insert were used to control the non-specific binding of the phage itself to the target. […] […] Horseradish peroxidase substrate, TMB (Sigma), was added to each well (100 μl/well and after color development the reaction was stopped by addition of 100 μl 0.5 M sulphuric acid to each well. The intensity of the color was measured at 450 nm.
as §2

[3] = molecular target: T3, E-cadherin/Fc chimeric protein (Homo sapiens, UniProt P12830); experiment: Cadherin/Fc binding assay: phage ELISA on E-cadherin/Fc; set-up: key: +: Phage bound to the chimeric protein; −: No phage bound to the chimeric protein
T3 construct: extracellular domain of human E-cadherin (Asp155-Ile707); purchased R&D Systems, Minneapolis, Minn
T3 sequence (P12830 155-707): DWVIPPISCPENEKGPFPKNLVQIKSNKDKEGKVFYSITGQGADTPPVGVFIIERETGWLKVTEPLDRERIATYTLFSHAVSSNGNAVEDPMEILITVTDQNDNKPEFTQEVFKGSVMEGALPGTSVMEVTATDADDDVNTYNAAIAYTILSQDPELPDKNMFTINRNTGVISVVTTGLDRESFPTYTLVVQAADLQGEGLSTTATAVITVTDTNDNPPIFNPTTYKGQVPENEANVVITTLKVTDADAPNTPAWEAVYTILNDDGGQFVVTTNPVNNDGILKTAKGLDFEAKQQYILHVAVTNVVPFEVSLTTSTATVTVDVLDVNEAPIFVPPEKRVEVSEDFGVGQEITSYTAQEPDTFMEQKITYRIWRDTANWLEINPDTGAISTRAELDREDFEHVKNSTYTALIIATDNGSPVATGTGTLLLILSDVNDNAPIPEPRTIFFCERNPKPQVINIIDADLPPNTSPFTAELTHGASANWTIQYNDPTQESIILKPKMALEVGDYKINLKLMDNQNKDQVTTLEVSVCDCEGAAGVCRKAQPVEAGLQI
Text: as §3, §1, §2

[4] = Table 7, Ph.D.-12 clones selected on E-cadherin/Fc
[5] = Table 2, Ph.D.-C7C library clones
[6] = Table 4, Ph.D.-12 library clones
[7] = Table 6, Ph.D.-C7C clones selected on E-cadherin/Fc

T1 sequence (P33151 with tags, fused parts or gaps limits assumed, species assumed): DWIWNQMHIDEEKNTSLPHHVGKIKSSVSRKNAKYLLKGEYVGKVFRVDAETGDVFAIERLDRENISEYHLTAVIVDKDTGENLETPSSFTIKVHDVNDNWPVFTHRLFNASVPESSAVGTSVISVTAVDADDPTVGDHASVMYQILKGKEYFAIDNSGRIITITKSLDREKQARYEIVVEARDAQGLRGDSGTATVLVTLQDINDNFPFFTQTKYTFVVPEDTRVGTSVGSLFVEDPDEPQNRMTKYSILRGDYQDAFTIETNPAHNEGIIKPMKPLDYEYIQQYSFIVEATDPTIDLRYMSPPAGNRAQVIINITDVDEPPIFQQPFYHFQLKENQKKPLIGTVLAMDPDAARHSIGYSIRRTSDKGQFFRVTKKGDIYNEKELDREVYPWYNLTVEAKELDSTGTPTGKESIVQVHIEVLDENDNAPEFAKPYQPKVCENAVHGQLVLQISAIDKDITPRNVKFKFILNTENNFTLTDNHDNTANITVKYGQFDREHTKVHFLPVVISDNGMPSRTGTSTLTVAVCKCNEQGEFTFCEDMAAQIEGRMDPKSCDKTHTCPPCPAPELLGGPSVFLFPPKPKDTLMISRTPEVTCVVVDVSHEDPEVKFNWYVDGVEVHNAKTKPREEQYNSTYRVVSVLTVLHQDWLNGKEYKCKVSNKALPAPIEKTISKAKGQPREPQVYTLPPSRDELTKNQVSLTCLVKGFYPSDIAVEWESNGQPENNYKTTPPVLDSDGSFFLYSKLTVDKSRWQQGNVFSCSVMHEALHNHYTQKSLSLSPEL

SWELYYPLRANL [Ec 12-a2]
ELISA Phage Binding to Cadherin/Fc Chimeric Proteins VE− [1, 4]: −
ELISA Phage Binding to Cadherin/Fc Chimeric Proteins N− [2, 4]: +
ELISA Phage Binding to Cadherin/Fc Chimeric Proteins E− [3, 4]: +

QWEIRYPWPSMG [Ec 12-a1]
ELISA Phage Binding to Cadherin/Fc Chimeric Proteins VE− [1, 4]: −
ELISA Phage Binding to Cadherin/Fc Chimeric Proteins N− [2, 4]: +
ELISA Phage Binding to Cadherin/Fc Chimeric Proteins E− [3, 4]: +

WEFSICETC [Nc 5]
ELISA Phage Binding to Cadherin/Fc Chimeric Proteins VE− [1, 5]: −
ELISA Phage Binding to N-Cadherin/Fc Chimeric Protein 1.2 mM calcium [2, 5]: +
ELISA Phage Binding to N-Cadherin/Fc Chimeric Protein 2 mM EDTA [2, 5]: −
ELISA Phage Binding to Cadherin/Fc Chimeric Proteins E− [3, 5]: −

WEVCLTEKC [Nc 15]
ELISA Phage Binding to Cadherin/Fc Chimeric Proteins VE− [1, 5]: −
ELISA Phage Binding to N-Cadherin/Fc Chimeric Protein 1.2 mM calcium [2, 5]: +
ELISA Phage Binding to N-Cadherin/Fc Chimeric Protein 2 mM EDTA [2, 5]: −
ELISA Phage Binding to Cadherin/Fc Chimeric Proteins E− [3, 5]: −

EWTWVFPTTHTS [Ec 12-07]
ELISA Phage Binding to Cadherin/Fc Chimeric Proteins VE− [1, 4]: −
ELISA Phage Binding to Cadherin/Fc Chimeric Proteins N− [2, 4]: +
ELISA Phage Binding to Cadherin/Fc Chimeric Proteins E− [3, 4]: +

SWLAVWPATGAS [Nc 12-a10]
ELISA Phage Binding to Cadherin/Fc Chimeric Proteins VE− [1, 6]: −
ELISA Phage Binding to N-Cadherin/Fc Chimeric Protein 1.2 mM calcium [2, 6]: +
ELISA Phage Binding to N-Cadherin/Fc Chimeric Protein 2 mM EDTA [2, 6]: +
ELISA Phage Binding to Cadherin/Fc Chimeric Proteins E− [3, 6]: +

HWYITTGPVREK [Nc 12-01]
ELISA Phage Binding to Cadherin/Fc Chimeric Proteins VE− [1, 6]: −
ELISA Phage Binding to N-Cadherin/Fc Chimeric Protein 1.2 mM calcium [2, 6]: +*
ELISA Phage Binding to N-Cadherin/Fc Chimeric Protein 2 mM EDTA [2, 6]: +
ELISA Phage Binding to Cadherin/Fc Chimeric Proteins E− [3, 6]: −**

WELRVSSPC [Nc a7]
ELISA Phage Binding to Cadherin/Fc Chimeric Proteins VE− [1, 5]: −
ELISA Phage Binding to N-Cadherin/Fc Chimeric Protein 1.2 mM calcium [2, 5]: +
ELISA Phage Binding to N-Cadherin/Fc Chimeric Protein 2 mM EDTA [2, 5]: −
ELISA Phage Binding to Cadherin/Fc Chimeric Proteins E− [3, 5]: −

EWTYTFPTAHSI [Ec 12-a18]
ELISA Phage Binding to Cadherin/Fc Chimeric Proteins VE− [1, 4]: −
ELISA Phage Binding to Cadherin/Fc Chimeric Proteins N− [2, 4]: +
ELISA Phage Binding to Cadherin/Fc Chimeric Proteins E− [3, 4]: +

GWTVFYPDNLRP [Ec 12-18]
ELISA Phage Binding to Cadherin/Fc Chimeric Proteins VE− [1, 4]: −
ELISA Phage Binding to Cadherin/Fc Chimeric Proteins N− [2, 4]: +
ELISA Phage Binding to Cadherin/Fc Chimeric Proteins E− [3, 4]: +

WTMCYPDTC [Ec 7]
ELISA Phage Binding to Cadherin/Fc Chimeric Proteins VE− [1, 7]: −**
ELISA Phage Binding to Cadherin/Fc Chimeric Proteins N− [2, 7]: +
ELISA Phage Binding to Cadherin/Fc Chimeric Proteins E− [3, 7]: +*

SWTWHFPESPPP [Ec 12-01]
ELISA Phage Binding to Cadherin/Fc Chimeric Proteins VE− [1, 4]: −**
ELISA Phage Binding to Cadherin/Fc Chimeric Proteins N− [2, 4]: +
ELISA Phage Binding to Cadherin/Fc Chimeric Proteins E− [3, 4]: +*

SWTLYTPSGQSK [Nc 12-04]
ELISA Phage Binding to Cadherin/Fc Chimeric Proteins VE− [1, 6]: −
ELISA Phage Binding to N-Cadherin/Fc Chimeric Protein 1.2 mM calcium [2, 6]: +
ELISA Phage Binding to N-Cadherin/Fc Chimeric Protein 2 mM EDTA [2, 6]: −
ELISA Phage Binding to Cadherin/Fc Chimeric Proteins E− [3, 6]: −
